In article PMC11702208 (RSC Advances, 2025):
Where “and” joins values, the source holds several entries; their conditions need not be identical. Identical values can stand only once.

Tested on: T-47D cells
Test: Annexin V-FITC/PI apoptosis assay
Assay type: cell-based

CCN(CC)c1ccc(C=NNC(=O)CSc2nc3ccccc3c(=O)n2Cc2ccc(S(N)(=O)=O)cc2)c(O)c1 [Compound 5, 4-((2-((2-(2-(4-(Diethylamino)-2-hydroxybenzylidene)hydrazineyl)-2-oxoethyl)thio)-4-oxoquinazolin-3(4H)-yl)methyl)benzenesulfonamide]
Apoptosis Early: 9.3% and 9.28% | Apoptosis Late: 14.8% and 14.75% | Apoptosis Total: 31.07% | Necrosis: 7.04%
